pIC50: −log10 of the molar value. Where “and” joins values, the source holds several entries; their conditions need not be identical. Equal entries are not always repeated. Where only a bound is given, the exact number is not on record here.

From PubChem BioAssay AID2060623 (Molecular Pharmacology Branch, DTP, NCI, 2025) come the findings set out here.

This experiment relates to 227483-062-R1-J1-PDC complex spheroids with HUVEC/MSC, viability. Briefly: Anticancer human tumor 227483-062-R1-J1-PDC patient-derived pancreatic carcinoma cell line growth inhibition [CLK]. Conditions: for viability, T/C: stronger effect = lower value; for pIC50: curve of compound. The source says:
A high-throughput screen of multi-cell type tumor spheroids was designed to identify active combinations of […] and targeted small molecules. Complex spheroids include a stromal component modeled by human endothelial cells (HUVEC) and fibroblasts modeled by human mesenchymal stem cells (MSCs). The concentration ranges selected for each drug and investigational agent were based upon clinically achievable concentrations if the clinical Cmax of the agent was known.
Compounds. The drugs and investigational agents: cirtuvivint (SM08502; NSC835563), CC-671 (NSC850746), vemurafenib (NSC761431), tapotoclax (NSC804041), sotorasib (NSC818433), adagrasib (NSC831453), MRTX-1133 (NSC836407), BAY2416964 (NSC825713), copanlisib (NSC816437), inavolisib (NSC800729), abemaciclib (NSC768073), osimertinib (NSC779217), entinostat (NSC756642), eltanexor (KPT-8602, NSC794443), venetoclax (NSC766270), ceralasertib (NSC777638), bortezomib (NSC756655), olaparib (NSC753686), talazoparib (NSC767125), alisertib (NSC759677), peposertib (NSC802822), gemcitabine (NSC613327), 5-fluorouracil (NSC19893), SN-38 (NSC673596), oxaliplatin (NSC266046), paclitaxel (NSC125973), and doxorubicin (NSC123127), were obtained from the National Cancer Institute (NCI) Developmental Therapeutics Program Chemical Repository. The FDA-approved anticancer drug set is available from the Developmental Therapeutics Program at https://dtp.cancer.gov/organization/dscb/obtaining/available plates.htm. […] The stock solutions were prepared in dimethyl sulfoxide (DMSO, Sigma-Aldrich, St. Louis, MO, cat. D2650), except for the platinum complexes which were prepared in saline (Quality Biological, Gaithersburg, MD, cat. 114-055-101), at 800-fold the tested concentration and stored at -70 degrees C prior to their use. All drugs and investigational agents were tested over a range starting from a high concentration at or near the clinical Cmax and decreasing in half-log increments. If the clinical Cmax for an agent had not been determined, the highest concentration tested was 10 microM.
Cell Culture. All cells were maintained in an incubator at 37 degrees C and 5% CO2 with 95% humidity. The PDC lines were cultured according to standard operating procedures established by the NCI PDMR. Briefly, all PDCs were thawed and cultured in Matrigel-coated flasks prepared with a working solution of 1X Ham's F-12 nutrient mix, without supplementation (Invitrogen, Waltham, MA, cat. 11765054), 100 U/mL penicillin-streptomycin (Invitrogen, cat. 15140122), and 2.5% Matrigel (Corning Inc., Corning, NY, cat. 354248) for the first three passages. The 947758-054-R-J2-PDC line was cultured in 6B/Colon 1A media, which includes advanced DMEM/F-12 (Thermo Fisher Scientific, cat. 12634028), 10 mM HEPES (Thermo Fisher Scientific, cat. 15630080), 1X GlutaMAX supplement (Thermo Fisher Scientific, cat. 35050061), 0.1 mg/mL primocin (InvivoGen, cat. ant-pm-2), 10% defined fetal bovine serum, heat inactivated (HyClone Laboratories Inc., cat. SH30070.03HI), 1.25 mM N-Acetyl-L-cysteine (Sigma-Aldrich, cat. A9165), 10 mM nicotinamide (Sigma-Aldrich, cat. N0636), 1X B-27 supplement (Thermo Fisher Scientific, cat. 17504044), 1X N-2 supplement (Thermo Fisher Scientific, cat. 17502048), and 10 microM Y-27632 dihydrochloride (Tocris Bioscience, cat. 1254). The 876862-298-R-J1-PDC was cultured in 6E media, which includes all 6B/Colon 1A media components plus 50% L-WRN conditioned media (ATCC, cat. CRL-3276), 50 ng/mL recombinant human EGF recombinant protein (hEGF; Thermo Fisher Scientific, cat. PHG0311), 10 ng/mL recombinant human fibroblast growth factor 10 (hGFG-10; PeproTech, cat. 100-26), 1 ng/mL recombinant human fibroblast growth factor 2 (hFGF-2; PeproTech, cat. 100-18B), and 1 µM prostaglandin E2 (PGE2; Tocris, cat. 2296). The 227483-062-R1-J1-PDC line was cultured in Panc media, containing all 6E components except hFGF-2, with the addition of 500 nM SB-431542 (Selleckchem, cat. S1067) and 10 nM gastrin (Tocris, cat. 3006). […]
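Further: spheroids exposed to compounds for seven days before readout.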
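Wherever viability, T/C is given: percent of DMSO vehicle control luminescence as 100% viability.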

For the molecule `CC(=O)O[C@H]1C(=O)[C@@]2(C)[C@H]([C@H](OC(=O)c3ccccc3)[C@]3(O)C[C@H](OC(=O)[C@H](O)[C@@H](NC(=O)c4ccccc4)c4ccccc4)C(C)=C1C3(C)C)[C@]1(OC(C)=O)CO[C@@H]1C[C@@H]2O`, the pIC50 is above 7.50. For the setting “compound 0.0316 µM”, the viability, T/C is 37.1% and 25.6%. Further, the viability, T/C (compound 0.1 µM) was 28.5% and 24%. For the same molecule, the viability, T/C (compound 0.316 µM) is 28.2% and 29.5%. In addition, the viability, T/C (compound 1 µM) was 37.5% and 31.8%. Moreover, under “compound 3.16 µM”, the viability, T/C is 50.2% and 38.9%. Besides, for the setting “compound 10 µM”, the viability, T/C is 60.8% and 52.3%.
As to `CC1(C)CCC(CN2CCN(c3ccc(C(=O)NS(=O)(=O)c4ccc(NCC5CCOCC5)c([N+](=O)[O-])c4)c(Oc4cnc5[nH]ccc5c4)c3)CC2)=C(c2ccc(Cl)cc2)C1`, the pIC50 was 5.21 and 5.22. Besides, the viability, T/C (compound 0.0316 µM) was 92.4% and 103%. Under “compound 0.1 µM”, the viability, T/C was 112% and 85.4%. In addition, the viability, T/C (compound 0.316 µM) was 95.4% and 94.4%. Moreover, for the setting “compound 1 µM”, the viability, T/C was 107% and 104%. For the same molecule, the viability, T/C (compound 3.16 µM) was 106% and 112%. Besides, the viability, T/C (compound 10 µM) is 13.2% and 9.57%.
Regarding `CC1COCCN1c1cc(C2(S(C)(=N)=O)CC2)nc(-c2ccnc3[nH]ccc23)n1` (stereo not drawn), the pIC50 is below 5.00. The viability, T/C (compound 0.0316 µM) is 98% and 93.4%. Moreover, for the setting “compound 0.1 µM”, the viability, T/C is 93.6% and 101%. Moreover, where the note is “compound 0.316 µM”, the viability, T/C was 89.4% and 103%. For the same molecule, for the setting “compound 1 µM”, the viability, T/C was 110% and 109%. In addition, the viability, T/C (compound 3.16 µM) was 86.9% and 78.7%. Under “compound 10 µM”, the viability, T/C is 62.2% and 53.5%.
Take `COc1ccc([C@@H](O)c2cc(-c3ncnc4cc(N5CCOCC5)ccc34)c(F)cc2Cl)nn1`: the pIC50 was below 5.00. In addition, the viability, T/C (compound 0.0316 µM) was 102% and 90.1%. Besides, where the note is “compound 0.1 µM”, the viability, T/C was 101% and 86%. For the same molecule, the viability, T/C (compound 0.316 µM) is 94.7% and 86.4%. The viability, T/C (compound 1 µM) was 95.4% and 98.6%. The viability, T/C (compound 3.16 µM) is 92.6% and 80.2%. Also, the viability, T/C (compound 10 µM) is 92.5% and 71%.
As to `COc1cccc2c1C(=O)c1c(O)c3c(c(O)c1C2=O)CC(O)(C(=O)CO)CC3OC1CC(N)C(O)C(C)O1` (stereo not drawn), the pIC50 is 6.32 and 6.73. For the same molecule, the viability, T/C (compound 0.0316 µM) was 90% and 75.6%. The viability, T/C (compound 0.1 µM) was 108% and 58%. For the same molecule, under “compound 0.316 µM”, the viability, T/C was 54.2% and 42.7%. For the same molecule, the viability, T/C (compound 1 µM) is 34.5% and 24.4%. In addition, the viability, T/C (compound 3.16 µM) is 7.31% and 2.77%. Moreover, the viability, T/C (compound 10 µM) was 8.24% and 9.84%.
As to `Nc1ccccc1NC(=O)c1ccc(CNC(=O)OCc2cccnc2)cc1`, the pIC50 is below 5.00. Besides, the viability, T/C (compound 0.0316 µM) was 102% and 79.6%. Besides, under “compound 0.1 µM”, the viability, T/C was 107% and 81.1%. The viability, T/C (compound 0.316 µM) was 116% and 94.4%. Moreover, the viability, T/C (compound 1 µM) was 121% and 101%. Besides, for the setting “compound 3.16 µM”, the viability, T/C was 135% and 104%. Where the note is “compound 10 µM”, the viability, T/C was 87.6% and 71.5%.
As for `Nc1ccn(C2OC(CO)C(O)C2(F)F)c(=O)n1` (stereo not drawn), the pIC50 is 7.08 and 7.31. Also, where the note is “compound 0.0316 µM”, the viability, T/C was 83.5% and 62.6%. Also, the viability, T/C (compound 0.1 µM) was 43.6% and 29.8%. Besides, the viability, T/C (compound 0.316 µM) was 33.7% and 28.5%. Further, under “compound 1 µM”, the viability, T/C is 37.7% and 30.3%. Further, the viability, T/C (compound 3.16 µM) was 35.4% and 25.7%. The viability, T/C (compound 10 µM) is 23.9% and 20.4%.
For the molecule `O=C(c1cc(Cc2n[nH]c(=O)c3ccccc23)ccc1F)N1CCN(C(=O)C2CC2)CC1`, the pIC50 was below 5.00. Under “compound 0.0316 µM”, the viability, T/C was 98% and 94.5%. Further, the viability, T/C (compound 0.1 µM) is 100% and 97.8%. Besides, for the setting “compound 0.316 µM”, the viability, T/C is 101% and 98.4%. The viability, T/C (compound 1 µM) is 107% and 99.2%. The viability, T/C (compound 3.16 µM) was 114% and 91.3%. Also, the viability, T/C (compound 10 µM) was 91.4% and 100%.
On to `O=c1[nH]cc(F)c(=O)[nH]1`, for which the pIC50 was 5.78 and 5.77. The viability, T/C (compound 0.0316 µM) is 103% and 83.9%. Besides, the viability, T/C (compound 0.1 µM) was 94.2% and 84.8%. Also, under “compound 0.316 µM”, the viability, T/C was 97% and 96.9%. Further, the viability, T/C (compound 1 µM) was 57%. In addition, where the note is “compound 3.16 µM”, the viability, T/C was 44.8% and 48%. The viability, T/C (compound 10 µM) was 35.4% and 35.5%.
